Measurements reported in patent US4874749A, “4"-Deoxy-4-N-methylamino avermectin Bla/Blb” (Merck & Co., Inc., priority 1987, dated 1989).

Columns and labels:
Format in all cases: in vivo
[1] = tested on: Spodoptera eridania larvae; assay: Contact toxicity study against Spodoptera eridania larvae; conditions: 96 hours, in microgram per gram body weight (BTI 159)
Method: In a contact toxicity study against Spodoptera eridania larvae 4"-deoxy-4"-epimethylamino avermectin Bla/Blb was 4 times more toxic than 4"-deoxy-4"-epiamino avermectin Bla/Blb as measured at 96 hours in microgram per gram body weight. (BTI 159).

Heliothis zea larvae [2] = assay: Contact toxicity study against Heliothis zea larvae; conditions: 96 hours
[3] = tested on: Heliothis virescens larvae; assay: Foliar ingestion toxicity study against Heliothis virescens larvae
southern armyworm = assay: LD90 test against southern armyworm (micrograms/GWT); conditions: GWT = Gram Weight of the Test insect
Description: (§1) For example, tests have been carried out in which the instant compound was compared with avermectin Bla/Blb (avermectin the starting material for the instant compound) and 4"-deoxy-4"-amino avermectin Bla/Blb. […] Expressed another way, 4"-deoxy-4"-amino avermectin Bla/Blb was 60% effective at 0.5 micrograms/GWT against southern armyworm while 4"-deoxy-4"-epi-N-methylamino avermectin Bla/Blb was 90% effective at 0.125 micrograms/GWT against the same parasite.

Daphnia magna = assay: Acute toxicity to Daphnia magna
Method: In one test of the instant compound (see Example 5) and closely related avermectin compounds against Daphnia magna, described as a 48 hour LC50 test, that is, the concentration of compound which is fatal to 50% of Daphnia magna over a 48 hour period, it was observed that avermectin Bla/Blb has an LC50 of 300 ppt (parts per trillion); and 4"-deoxy-4"-amino avermectin Bla/Blb has an LC50 of 600 ppt.
Ten Dahpnia magna (first instar less than 24 hours old) were placed in a 250 ml glass beaker containing 200 ml of an aqueous solution of the test compounds in concentrations from 1.0 to 10 microgram/liter (ppb). The test compounds were dissolved in a small volume of acetone for dilution with water. The solvent control contained 0.010 ml of acetone which is equivalent to the highest test concentration. A control and solvent control was added to the experiment which was conducted in two replicates. All concentrations were observed once at 24 and 48 hours for mortality and abnormal effects such as surfacing, clumping of the daphnids together and daphnids lying on the bottom of the beakers.

[4] = tested on: Spodoptera eridania larvae; assay: Foliar ingestion toxicity study against Spodoptera eridania larvae
tobacco budworm = assay: LD90 test against tobacco budworm (micrograms/GWT); conditions: GWT = Gram Weight of the Test insect
Description: as §1

[5] = tested on: Bluegill Sunfish (Lepomis macrochirus); assay: Acute toxicity to Bluegill Sunfish
Method: The same test procedure was used as described in example 6, except that Bluegill Sunfish were used and that the test vessels were kept in a water bath at 22° C.

Heliothis zea larvae [6] = assay: Foliar ingestion toxicity against Heliothis zea larvae
[7] = tested on: Rainbow Trout (Salmo gairdneri); assay: Acute toxicity to Rainbow Trout, static fish bioassay
Method: The static fish bioassay was conducted in five gallon glass vessels containing 15 liters of soft reconstituted water composed of the following compounds in the amounts stated per liter of deionized water:
This reconstituted water was prepared to yield a total hardness of 40-48 mg/l as CaCO3, a total alkalinity of 20-30 mg/l as CaCO3 and an initial pH of 7.2 to 7.6. The 0-hour measured control water parameters of this dilution water were dissolved oxygen 9.7 mg/l and pH 7.4.
The test vessels were kept in a water bath at 12° C. The test fish were acclimated to the dilution water and test temperature and held without food for 48-96 hours prior to testing.
Based on the results of preliminary testing, six concentrations of the test compound with ten fish per concentration were selected for the definitive bioassay. The definitive test concentrations were obtained by transferring appropriate aliquots of a working standard directly to the test chambers. The working standard was prepared in dimethylformamide (DMF). Also included was a dilution water control and a solvent control chamber.
The fish were added to the test chambers by random assignment within 30 minutes after addition of test material. All test organisms were observed once every 24 hours for mortality and abnormal (sub-lethal) effects. any dead individuals were removed from the test chambers after each 24-hour observation. The LC50 statistic and its 95 percent confidence limits were calculated by employing a computerized standard program.

[8] = tested on: Heliothis virescens larvae; assay: Contact toxicity study against Heliothis virescens larvae
[9] = 0.04 microgram/gram body weight
[10] = 48 hour, ppt = parts per trillion
[11] = 24 hr, nominal concentration 0.056 mg/l
[12] = 24 hr, nominal concentration 0.10 mg/l
[13] = 24 hr, nominal concentration 0.18 mg/l
[14] = 24 hr, nominal concentration 0.32 mg/l
[15] = 24 hr, nominal concentration 0.56 mg/l
[16] = 24 hr, nominal concentration 1.0 mg/l
[17] = 48 hr, nominal concentration 0.056 mg/l
[18] = 48 hr, nominal concentration 0.10 mg/l
[19] = 48 hr, nominal concentration 0.18 mg/l
[20] = 48 hr, nominal concentration 0.32 mg/l
[21] = 48 hr, nominal concentration 0.56 mg/l
[22] = 48 hr, nominal concentration 1.0 mg/l
[23] = 96 hr, nominal concentration 0.056 mg/l
[24] = 96 hr, nominal concentration 0.10 mg/l
[25] = 96 hr, nominal concentration 0.18 mg/l
[26] = 96 hr, nominal concentration 0.32 mg/l
[27] = 96 hr, nominal concentration 0.56 mg/l
[28] = 96 hr, nominal concentration 1.0 mg/l

4"-Deoxy-4"-epi-methylaminoavermectin Bla/Blb
times more toxic than 4"-deoxy-4"-epiamino avermectin Bla/Blb [1]: 4 times
mortality (Heliothis zea larvae [2]; [9]): 20%
mortality (Heliothis zea larvae [2]; 0.4 microgram/g body weight): 100%
mortality (Heliothis zea larvae [2]; 4.0 microgram/gram body weight): 100%
LC90 [3]: 0.003 ppm
times more toxic than avermectin Bla/Blb (LC90) [3]: 43 times
LD90 (Lethal Dose for 90% of the insects) (southern armyworm): 0.542 micrograms/GWT
Percent Mortality (Daphnia magna; 24 hr, nominal concentration 1.0 microgram/l): 0%
Percent Mortality (Daphnia magna; 24 hr, nominal concentration 1.8 microgram/l): 0%
Percent Mortality (Daphnia magna; 24 hr, nominal concentration 3.2 microgram/l): 20%
Percent Mortality (Daphnia magna; 24 hr, nominal concentration 5.6 microgram/l): 30%
Percent Mortality (Daphnia magna; 24 hr, nominal concentration 10.0 microgram/l): 90%
times less toxic than the 4"-amino compound (Daphnia magna; 48 hour LC50, vs 4"-deoxy-4"-amino avermectin Bla/Blb): ~5 times
times less toxic than the avermectin Bla/Blb compound (Daphnia magna; 48 hour LC50, vs avermectin Bla/Blb): ~10 times
LC50 (Daphnia magna; [10]): 2900 ppt
LC50 (Daphnia magna; 48 hours): 2.9 micrograms/l
Percent Mortality (Daphnia magna; 48 hr, nominal concentration 1.0 microgram/l): 0%
Percent Mortality (Daphnia magna; 48 hr, nominal concentration 1.8 microgram/l): 5%
Percent Mortality (Daphnia magna; 48 hr, nominal concentration 3.2 microgram/l): 70%
Percent Mortality (Daphnia magna; 48 hr, nominal concentration 5.6 microgram/l): 95%
Percent Mortality (Daphnia magna; 48 hr, nominal concentration 10.0 microgram/l): 100%
LC90 (lethal concentration for 90% of the insects) [4]: 0.005 ppm
times more toxic than avermectin Bla/Blb (LC90) [4]: 1166 times
LD90 (Lethal Dose for 90% of the insects) (tobacco budworm): 0.4 micrograms/GWT
LC50 ([5]; 24 hours): 0.75 milligrams/liter (ppm)
Percent Mortality [5, 11]: 0%
Percent Mortality [5, 12]: 0%
Percent Mortality [5, 13]: 0%
Percent Mortality [5, 14]: 0%
Percent Mortality [5, 15]: 0%
Percent Mortality [5, 16]: 100%
LC50 ([5]; 48 hours): 0.45 milligrams/liter (ppm)
Percent Mortality [5, 17]: 0%
Percent Mortality [5, 18]: 0%
Percent Mortality [5, 19]: 0%
Percent Mortality [5, 20]: 0%
Percent Mortality [5, 21]: 90%
Percent Mortality [5, 22]: 100%
LC50 ([5]; 96 hours): 0.24 milligrams/liter (ppm)
Percent Mortality [5, 23]: 0%
Percent Mortality [5, 24]: 0%
Percent Mortality [5, 25]: 0%
Percent Mortality [5, 26]: 100%
Percent Mortality [5, 27]: 100%
Percent Mortality [5, 28]: 100%
LC90 (Heliothis zea larvae [6]): 0.002 ppm
times more toxic than avermectin Bla/Blb (LC90) (Heliothis zea larvae [6]): 105 times
LC50 ([7]; 24 hours): > 1.0 milligrams/liter (ppm)
Percent Mortality [7, 11]: 0%
Percent Mortality [7, 12]: 0%
Percent Mortality [7, 13]: 0%
Percent Mortality [7, 14]: 0%
Percent Mortality [7, 15]: 0%
Percent Mortality [7, 16]: 0%
LC50 ([7]; 48 hours): > 1.0 milligrams/liter (ppm)
Percent Mortality [7, 17]: 0%
Percent Mortality [7, 18]: 0%
Percent Mortality [7, 19]: 0%
Percent Mortality [7, 20]: 0%
Percent Mortality [7, 21]: 0%
Percent Mortality [7, 22]: 0%
LC50 ([7]; 96 hours): 0.67 milligrams/liter (ppm)
Percent Mortality [7, 23]: 0%
Percent Mortality [7, 24]: 0%
Percent Mortality [7, 25]: 0%
Percent Mortality [7, 26]: 0%
Percent Mortality [7, 27]: 20%
Percent Mortality [7, 28]: 100%
mortality ([8]; 0.1 microgram/g body weight): 25%
mortality ([8]; 0.4 microgram/g body weight): 100%

4"-deoxy-4"-amino avermectin Bla/Blb [reference compound]
LD90 (Lethal Dose for 90% of the insects) (southern armyworm): 3.4 micrograms/GWT
LC50 (Daphnia magna; [10]): 600 ppt
LC50 (Daphnia magna; 48 hours): 0.6 micrograms/l
LD90 (Lethal Dose for 90% of the insects) (tobacco budworm): 1.3 micrograms/GWT

4"-deoxy-4"-epiamino avermectin Bla/Blb [reference compound]
mortality (Heliothis zea larvae [2]; [9]): 0%
mortality (Heliothis zea larvae [2]; 0.4 microgram/g body weight): 90%
mortality (Heliothis zea larvae [2]; 4.0 microgram/gram body weight): 100%
mortality ([8]; 0.1 microgram/g body weight): 5%
mortality ([8]; 0.4 microgram/g body weight): 30%

avermectin Bla/Blb [reference compound]
LC90 [3]: 0.128 ppm
LD90 (Lethal Dose for 90% of the insects) (southern armyworm): > 34.0 micrograms/GWT
LC50 (Daphnia magna; [10]): 300 ppt
LC50 (Daphnia magna; 48 hours): 0.34 micrograms/l
LC90 (lethal concentration for 90% of the insects) [4]: 5.83 ppm
LD90 (Lethal Dose for 90% of the insects) (tobacco budworm): > 1.3 micrograms/GWT
LC50 ([5]; 24 hours): 0.029 milligrams/liter (ppm)
LC50 ([5]; 48 hours): 0.019 milligrams/liter (ppm)
LC50 ([5]; 96 hours): 0.0096 milligrams/liter (ppm)
LC90 (Heliothis zea larvae [6]): 0.21 ppm
LC50 ([7]; 24 hours): > 0.006 milligrams/liter (ppm)
LC50 ([7]; 48 hours): 0.0046 milligrams/liter (ppm)
LC50 ([7]; 96 hours): 0.0032 milligrams/liter (ppm)
